According to US8859544B2, “Indolizine derivatives, process for the preparation thereof and therapeutic use thereof” (Sanofi, priority 2010, dated 2014):
Several values for one entry are separate records, joined by “and”; a condition that tells them apart may be missing. Equal entries are not always repeated. Each block holds one molecule with its values, some of them ahead of it.

Key:
[1] = system: inflammatory angiogenesis in mice; assay: Model of inflammatory angiogenesis in mice; format: in vivo; details: for % inhibition of the angiogenic parameter (dye content) / % inhibition of the inflammatory parameter (mass of the granuloma): mice, daily oral treatment
Procedure: The model is developed on OF1 female mice (Charles River Laboratories) weighing approximately 25 g, and by groups of 12. The animals are anaesthetized with sodium pentobarbital (60 mg/kg; Sanofi Nutrition Santé animale)) intraperitoneally. An air pocket is created on the back of the mouse by subcutaneous injection of 3 ml of air. […] Seven days later, the mice are again anaesthetized and placed on a hot plate at 40° C. One ml of carmine red (Aldrich Chemicals, 5% in 10% of gelatin) is injected into the tail vein. The animals are then placed at 4° C. for 2-3 hours. The skins are then taken and dried for 24 h in an oven at 56° C. The dry tissues are weighed and placed in 1.8 ml of digestion solution (2 mM dithiothreitol, 20 mM Na2HPO4, 1 mM EDTA, 12 U/ml papain) for 24 h. The dye is then dissolved in 0.2 ml of 5M NaOH. The skins are centrifuged at 2000 rpm for 10 min at ambient temperature. The supernatants are filtered through 0.2 μm cellulose acetate membranes. The filtrates are read in a spectrophotometer at 492 nm against a carmine red calibration range. Two parameters are studied: the dry weight of the granuloma and the amount of dye after digestion of the tissues. The results are expressed as mean values (±sem). The differences between the groups are tested with an ANOVA followed by a Dunnett's test, of which the reference group is the “solvent control” group.
The FGF-R antagonists are evaluated between 1 and 50 mg/kg using methylcellulose/tween (0.6% v/v) as vehicle or any other vehicle which allows the active ingredient to be solubilized. The molecules are administered daily, orally (one or two times a day) by gavage.

[2] = system: HUVEC cells stimulated with FGF-2; assay: FGF-2-induced in vitro proliferation of HUVEC cells; format: cell-based, human; details: inhibition of proliferation as percentage of the control
Procedure: To do this, HUVEC human vein endothelial cells (promocell, C-12200) are seeded at a rate of 5000 cells per well of a 96-well plate (Biocoat collagen I cellware, Becton Dickinson 354650) in 100 μl of RPMI 1640 deprivation medium (Invitrogen, 31872-025) supplemented with 0.5% or 1% FCS, 2 mM glutamine, 1× sodium pyruvate (Invitrogen, 11360-039) and 1×NEAA (Invitrogen, 11140-035), overnight at 37° C. in the presence of 5% CO2. The following morning, the medium is suctioned-off and replaced with 50 μl of deprivation medium containing the antagonists at a 2× concentration, to which are added 50 μl of FGF-2 (R&D systems, 133-FB-025; Invitrogen, PHG0026) at 0.2 ng/ml (i.e. 2×). After 48 or 72 h, 100 μl of Cell Titer-GLOW Luminescent Cell Viability Assay (Promega, G7571) are added for 10 min in order to measure, by means of a luminometer, the amount of ATP present in the cells and which is in relation to the number of cells per well corresponding to the cell proliferation.
The antagonists of the present invention are considered to be active as long as they are capable of inhibiting FGF-2-induced proliferation of HUVEC cells at a dose less than or equal to 300 nM.

[3] = system: HUVEC cells stimulated with FGF-2; assay: FGF-2-induced in vitro angiogenesis of HUVEC cells; format: cell-based, human; details: as a percentage of the control
Procedure: To do this, matrices composed of matrigel (growth factor reduced matrigel, Becton Dickinson 356230) and collagen (rat tail collagen type I, Becton Dickinson 354236) are deposited, at a rate of 160 μl, into each chamberslide well (Biocoat Cellware collagen, Type I, 8-well culturesides: Becton Dickinson 354630), or 60 μl per well of 96-well plates (Biocoat collagen I cellware, Becton Dickinson 354407). The matrix is prepared by mixing ⅓ of matrigel, 1 mg/ml final concentration of collagen, NaOH (0.1N) (0.026× the volume of collagen in μl) and 1×PBS, and the volume is then adjusted with water. The gels are kept at 37° C. for 1 hour so as to allow them to polymerize. Next, the human vein endothelial cells (HUVECs ref: C-12200-Promocell) were seeded at 15×10^3 or 6×10^3 cells/well in 400 or 120 μl (for the 8-well or 96-well plates respectively) of EBM medium (Clonetics C3121)+2% FBS+10 μg/ml hEGF. They were stimulated with 1 or 3 ng/ml of FGF-2 (R&D systems, 133-FB-025; Invitrogen, PHG0026) for 24 h at 37° C. in the presence of 5% CO2. After 24 hours, the length of the network of microtubules formed was measured using a computer-assisted image analysis system (Imagenia Biocom, Courtaboeuf, France) and the total length of the pseudotubules in each well was determined. The average total length of the microcapillary network was calculated in μm for each condition corresponding to the average of 6 replicates.
Stimulation with FGF2 makes it possible to induce the formation of new tubules. An FGF-R antagonist is considered to be active in this test as long as it is capable of partially inhibiting this angiogenesis at a dose less than or equal to 300 nM.

Structure (SMILES): COc1c(C)c(C(=O)c2ccc3c(c2)c(=O)c(C(=O)[O-])cn3C)n2ccccc12.[Na+] [Compound No. 62, Sodium salt of 6-[(1-methoxy-2-methylindolizin-3-yl)carbonyl]-1-methyl-4-oxo-1,4-dihydroquinoline-3-carboxylic acid]
- % inhibition of the angiogenic parameter (dye content) ([1]; 10 mg/kg): 43%
- % inhibition of the inflammatory parameter (mass of the granuloma) ([1]; 10 mg/kg): 38%

Structure (SMILES): CNC(=O)c1cn(C)c2ccc(C(=O)c3c(C)cc4ccccn34)cc2c1=O [Compound No. 105, N-1-Dimethyl-6-[(2-methylindolizin-3-yl)carbonyl]-4-oxo-1,4-dihydroquinoline-3-carboxamide]
- Percentage inhibition of angiogenesis (%) ([2]; 30 nM): 14%
- Percentage inhibition of angiogenesis (%) ([2]; 300 nM): 123%
- Percentage inhibition of angiogenesis (%) ([3]; 3 nM): 25%
- Percentage inhibition of angiogenesis (%) ([3]; 30 nM): 105%

Structure (SMILES): CNC(=O)c1c[nH]c2ccc(C(=O)c3c(C)c(OC)c4ccccn34)cc2c1=O [Compound No. 96, 6-[(1-Methoxy-2-methylindolizin-3-yl)carbonyl]-N-methyl-4-oxo-1,4-dihydroquinoline-3-carboxamide]
- melting point: 324 °C
- inhibition at 0.03 µM ([2]; Homo sapiens, 30 nM, read-out: Percentage inhibition of angiogenesis (%)): 123%
- inhibition at 0.3 µM ([2]; Homo sapiens, 300 nM, read-out: Percentage inhibition of angiogenesis (%)): 129%
- inhibition at 0.003 µM ([3]; Homo sapiens, 3 nM): 123%
- inhibition at 0.03 µM ([3]; Homo sapiens, 30 nM): 129%

Structure (SMILES): COc1c(C)c(C(=O)c2ccc3[nH]c(=O)n(CC(=O)N(C)C)c(=O)c3c2)n2ccccc12 [Compound No. 35, 2-{6-[(1-Methoxy-2-methylindolizin-3-yl)carbonyl]-2,4-dioxo-1,4-dihydroquinazolin-3(2H)-yl}-N,N′-dimethylacetamide]
- % inhibition of the angiogenic parameter (dye content) ([1]; 30 mg/kg): 36%
- % inhibition of the inflammatory parameter (mass of the granuloma) ([1]; 30 mg/kg): 36%
- dye content corresponding to the angiogenesis ([1]; 10 or 30 mg/kg, after one week of daily treatment): significantly reduce

Continued, in another order:

- melting point: 230 °C
Structure (SMILES): CCOC(=O)COn1c(=O)[nH]c2ccc(C(=O)c3c(C)c(OC)c4ccccn34)cc2c1=O [Compound No. 34, Ethyl({6-[(1-methoxy-2-methylindolizin-3-yl)carbonyl]-2,4-dioxo-1,4-dihydroquinazolin-3(2H)-yl}oxy)acetate]

- melting point: 276 °C
Structure (SMILES): COc1c(C)c(C(=O)c2ccc3c(c2)c(=O)n(CC(=O)N(C)C)c(=O)n3C)n2ccccc12 [Compound No. 68, 2-{6-[(1-Methoxy-2-methylindolizin-3-yl)carbonyl]-1-methyl-2,4-dioxo-1,4-dihydroquinazolin-3(2H)-yl}-N,N-dimethylacetamide]

- melting point: 220 °C
Structure (SMILES): COc1c(C)c(C(=O)c2ccc3[nH]c(=O)n(N)c(=O)c3c2)n2ccccc12 [Compound No. 51, 3-Amino-6-[(1-methoxy-2-methylindolizin-3yl)carbonyl]quinazoline-2,4(1H,3H)-dione]

- melting point: 215 °C
Structure (SMILES): CCCn1c(=O)[nH]c2ccc(C(=O)c3c(C)c(OCCOC)c4ccccn34)cc2c1=O [Compound No. 48, 6-{[1(2-Methoxyethoxy)-2-methylindolizin-3-yl]carbonyl}-3-propylquinazoline-2,4(1H,3H)-dione]

- melting point: 176 °C
Structure (SMILES): COc1c(C)c(C(=O)c2ccc3[nH]c(=O)n(Cc4nc(C)no4)c(=O)c3c2)n2ccccc12 [Compound No. 36, 6-[(1-Methoxy-2-methylindolizin-3-yl)carbonyl]-3-[(3-methyl-1,2,4-oxadiazol-5-yl)methyl]quinazoline-2,4(1H,3H)-dione]

- melting point: 290 °C and 287 °C
Structure (SMILES): COc1c(C)c(C(=O)c2ccc3nc(C)[nH]c(=O)c3c2)n2ccccc12 [Compound No. 15, 6-[(1-Methoxy-2-methylindolizin-3-yl)carbonyl]-2-methylquinazolin-4(3H)-one]
- % inhibition of the angiogenic parameter (dye content) ([1]; 30 mg/kg): 21%
- % inhibition of the inflammatory parameter (mass of the granuloma) ([1]; 30 mg/kg): 21%
